This note sets out measurements from US20250289826A1, “PLPRO PROTEIN INHIBITOR, AND PREPARATION METHOD AND APPLICATION THEREOF” (priority 2022, published 2025).

A word on the IC50: it is the concentration that inhibits the measured activity by half. Lower therefore signals inhibition by little substance. As a reminder, the inhibition is how much of the control response was suppressed.

In this experiment the target is PLpro (Severe acute respiratory syndrome coronavirus 2 (2019-nCoV) (SARS-CoV-2), UniProt P0DTD1). Kind of experiment: Assay for PLpro inhibitory activity (Ub-AMC fluorescence; single point inhibition test and IC50 determination). The settings on record: for IC50: fluorescence measured after 15 min of reaction; for inhibition at 1 µM: read-out: inhibition of PLpro (1 μM), 1 μM test compound, 100 nM PLpro, 10 μM Ub-AMC, 37° C. 30 min. Type of experiment: biochemical.

Regarding `Cc1ccc(N2CC(N(C)C)C2)cc1C(=O)NC1(c2cccc3c(F)cccc23)CC1` [Example C18], the IC50 was 17.8 ± 1.94 nM and the inhibition at 1 µM is 97.6%.

Consider `Cc1ccc(N2CC(N(C)C)C2)cc1C(=O)NC1(c2ccc(OC(F)F)c3ccccc23)CC1` [Example C68], for which the IC50 was found to be 182 nM and the inhibition at 1 µM stood at 98.5%.

On to `Cc1ccc(N2CC(N(C)C)C2)cc1C(=O)NC1(c2ccc(OC(F)F)c3ncccc23)CC1` [Example C69], for which the 50% inhibitory concentration (IC50) came to 29.3 nM and the inhibition at 1 µM was determined as 98.8%.

In the case of `Cc1ccc(NC2CCNC2)cc1C(=O)NC1(c2ccc(F)c3ncccc23)CC1` (stereo not drawn) [Example C53], the inhibition at 1 µM is 44.9%.

As to `Cc1ccc(N2CCNCC2)cc1C(=O)NC1(c2ccc(F)c3ccccc23)CC1` [Example C2], the IC50 is 98 ± 12.1 nM and the inhibition at 1 µM came to 96.4%.

Consider `Cc1ccc(N)cc1CNC1(c2ccc(F)c3ncccc23)CC1` [Example C86], for which the inhibition at 1 µM is 33.5%.

With `Cc1ccc(N)cc1C(=O)NC1(c2ccc(F)c3ncccc23)CC1` [Example C87], the inhibition at 1 µM was 23.1%.

In the case of `Cc1ccc(NC2CCNCC2)cc1C(=O)NC1(c2ccc(F)c3ncccc23)CC1` [Example C56], the inhibition at 1 µM was 24.5%.

Take `Cc1ccc(N2CC(N(C)C)C2)cc1/C=N/C1(c2ccc(F)c3ncccc23)CC1` [Example C80]: the inhibition at 1 µM came out at 11.9%.

For `Cc1ccc(N2CC(N(C)C)C2)cc1C(=O)NC1(c2ccc(C#N)c3ccccc23)CC1` [Example C70], the IC50 was found to be 40.6 nM and the inhibition at 1 µM amounted to 99.2%.

Turning to `Cc1ccc(N2CC(N(C)C)C2)cc1C(=O)NC1(c2cccc3c(Cl)cccc23)CC1` [Example C17], the IC50 was found to be 18.7 ± 5.29 nM and the inhibition at 1 µM turned out to be 98.1%.

Turning to `Cc1ccc(N2CCS(=O)(=O)CC2)cc1C(=O)NC1(c2ccc(F)c3ncccc23)CC1` [Example C41], the inhibition at 1 µM was 32.8%.

Take `COc1cccc2c(C3(NC(=O)c4cc(N5CC(N(C)C)C5)ccc4C)CC3)ccnc12` [Example C30]: 67.4 nM corresponded to half-maximal inhibition (IC50) and the inhibition at 1 µM is 91.5%.

Take `Cc1ccc(N2CCCC(N(C)C)C2)cc1C(=O)NC1(c2ccnc3ccccc23)CC1` (stereo not drawn) [Example C32]: the inhibition at 1 µM is 43.9%.

Consider `Cc1ccc2c(C3(NC(=O)c4cc(N5CC(N(C)C)C5)ccc4C)CC3)ccc(F)c2n1` [Example C89], for which the IC50 was determined as 119 nM and the inhibition at 1 µM worked out at 82%.

`Cc1ccc(N2CC(CN)C2)cc1C(=O)NC1(c2ccc(F)c3ncccc23)CC1` [Example C81]: the inhibition at 1 µM came out at 37.1%.

With `Cc1ccc(N2CC(N(C)C)C2)cc1C(=O)NC1(c2ccc(-c3ccccc3)cc2)CC1` [Example C22], the inhibition at 1 µM worked out at 0%.

With `Cc1ccc(N2CC(N(C)C)C2)cc1C(=O)NC1(c2ccc3c(c2)c2ccccc2n3C)CC1` [Example C72], the inhibition at 1 µM was determined as 91%.

Consider `Cc1ccc(N2CC(N(C)C)C2)cc1C(=O)NC1(c2ccnc3c(F)cccc23)CC1` [Example C67], for which the concentration for half-maximal inhibition (IC50) is 36.6 nM and the inhibition at 1 µM came out at 97.7%.

For `Cc1ccc(N2CC3CCC(C2)N3)cc1C(=O)NC1(c2ccc(F)c3ccccc23)CC1` [Example C3], the half-maximal inhibitory concentration (IC50) came to 40.1 ± 3.01 nM and the inhibition at 1 µM was 96.2%.

In the case of `Cc1ccc(N2CC(N(C)C)C2)cc1C(=O)NC1(c2cccc(Oc3ccccc3)c2)CC1` [Example C71], the inhibition at 1 µM is 25%.

In the case of `COC1(C)CN(c2ccc(C)c(C(=O)NC3(c4ccc(F)c5ncccc45)CC3)c2)C1` [Example C38], the inhibition at 1 µM was found to be 11.7%.

For the compound `Cc1ccc(N2CC3CCC(C2)N3C)cc1C(=O)NC1(c2cccc(-c3cccs3)c2)CC1` [Example C5], the IC50 is 104 ± 6.02 nM and the inhibition at 1 µM came out at 79.5%.

Take `Cc1ccc(N2CC(N(C)C)C2)cc1C(=O)NC1(c2cccc3c2ccn3C)CC1` [Example C91]: the inhibition at 1 µM is 71%.

For the compound `Cc1ccc(N2CC(N(C)C)C2)cc1C(=O)NC1(c2ccc(Br)c3ccccc23)CC1` [Example C13], 79.8 ± 6.04 nM corresponded to half-maximal inhibition (IC50) and the inhibition at 1 µM is 98.5%.

Turning to `Cc1ccc(N2CC(N(C)C)C2)cc1C(=O)NC1(c2ccc3ccccc3c2)CC1` [Example C47], the inhibition at 1 µM is 58%.

As for `Cc1ccc(N2CC(N(C)C)C2)cc1C(=O)NC1(c2cccc3ccsc23)CC1` [Example C57], the inhibition at 1 µM was 92%.

With `Cc1ccc(N2CCS(=O)(=O)CC2)cc1C(=O)NC1(c2ccnc3ccccc23)CC1` [Example C33], the inhibition at 1 µM turned out to be 41%.

Take `Cc1ccc(N2CC([N+](C)(C)[O-])C2)cc1C(=O)NC1(c2ccc(F)c3ncccc23)CC1` [Example C59]: the inhibition at 1 µM came out at 0%.

On to `Cc1ccc(N2CCN(C(C)C)CC2)cc1C(=O)NC1(c2ccc(F)c3ncccc23)CC1` [Example C44], for which the inhibition at 1 µM came out at 84.9%.

Regarding `Cc1ccc(N2CC(N(C)C)C2)cc1C(=O)NC1(c2ccnc3c(Cl)cccc23)CC1` [Example C29], inhibition was half-maximal at 44.9 nM (IC50) and the inhibition at 1 µM was determined as 92.9%.

On to `Cc1ccc(N2CC(N(C)C)C2)cc1C(=O)NC1(c2cnc(O)c3ccccc23)CC1` [Example C73], for which the midpoint of inhibition, the IC50, lay at 172 ± 18.1 nM and the inhibition at 1 µM was determined as 89.3%.

For `COc1ccc2c(C3(NC(=O)c4cc(N5CC(N(C)C)C5)ccc4C)CC3)ccc(F)c2n1` [Example C64], inhibition was half-maximal at 50.6 nM (IC50) and the inhibition at 1 µM was determined as 78%.

As for `Cc1ccc(N2CC(C(C)(C)O)C2)cc1C(=O)NC1(c2ccc(F)c3ncccc23)CC1` [Example C65], the inhibition at 1 µM stood at 22%.

Take `Cc1ccc(N2CC(N(C)C)C2)cc1C(=O)NC1(c2cccc3c2CCCC3)CC1` [Example C21]: the IC50 is 91.1 ± 8.22 nM and the inhibition at 1 µM amounted to 90.4%.

For `Cc1ccc(N2CCN(C3CC3)CC2)cc1C(=O)NC1(c2ccc(F)c3ncccc23)CC1` [Example C45], the inhibition at 1 µM is 81.4%.

For `Cc1ccc(N2CCN(C3CC3)CC2)cc1C(=O)NC1(c2cccc3ncccc23)CC1` [Example C46], the inhibition at 1 µM worked out at 77.6%.

As for `Cc1ccc(N2CC(C(C)(C)N)C2)cc1C(=O)NC1(c2ccc(F)c3ncccc23)CC1` [Example C82], the inhibition at 1 µM was determined as 8.2%.

For the compound `Cc1ccc(N2CC(N(C)C)C2)cc1C(=O)NC1(c2cc(C(F)(F)F)nc3c(C(F)(F)F)cccc23)CC1` [Example C61], the inhibition at 1 µM was 85%.

Turning to `Cc1ccc(N2CCC(O)CC2)cc1C(=O)NC1(c2ccc(F)c3ncccc23)CC1` [Example C63], the inhibition at 1 µM is 30%.

In the case of `Cc1ccc(NC2CCN(C)CC2)cc1C(=O)NC1(c2ccc(F)c3ncccc23)CC1` [Example C51], the inhibition at 1 µM is 38.4%.

For the compound `Cc1ccc(N2CC(CN(C)C)C2)cc1C(=O)NC1(c2ccc(F)c3ncccc23)CC1` [Example C83], the inhibition at 1 µM came to 24.2%.

Consider `Cc1ccc(N2CCN(C3CC3)CC2)cc1C(=O)NC1(c2ccc(F)c3ccccc23)CC1` [Example C49], for which the inhibition at 1 µM came out at 58.4%.

Regarding `Cc1ccc(N2CC3CCC(C2)N3C)cc1C(=O)NC1(c2cccc(C(C)(C)C)c2)CC1` [Example C8], the inhibition at 1 µM is 37.2%.

As for `Cc1ccc(N2CC(N(C)C)C2)cc1C(=O)NC1(c2cccc3c2OCO3)CC1` [Example C78], the inhibition at 1 µM came to 25.4%.

For the compound `Cc1ccc(N2CC3CCC(C2)N3)cc1C(=O)NC1(c2cccc3cc(F)ccc23)CC1` [Example C1], inhibition was half-maximal at 83 ± 6.63 nM (IC50) and the inhibition at 1 µM worked out at 97.7%.

Regarding `Cc1ccc(N2CC(N(C)C)C2)cc1C(=O)NC1(c2cccc3cc(F)ccc23)CC1` [Example C9], it took 52.1 ± 4.18 nM to reach half-maximal inhibition (IC50) and the inhibition at 1 µM stood at 98%.

As for `Cc1ccc(N2CCCC(N(C)C)C2)cc1C(=O)NC1(c2ccc(F)c3ncccc23)CC1` (stereo not drawn) [Example C40], the inhibition at 1 µM is 55.2%.

In the case of `Cc1ccc(N2CC(N(C)C)C2)cc1C(=O)NC1(c2ccc(C)c3ncccc23)CC1` [Example C75], the IC50 was determined as 4.71 ± 1.38 nM and the inhibition at 1 µM is 99.4%.

For `Cc1ccc(N2CC(N(C)C)C2)cc1C(=O)NC1(c2ccccc2)CC1` [Example C19], the inhibition at 1 µM was determined as 4.9%.

For the compound `Cc1ccc(N2CCN(C3CC3)CC2)cc1C(=O)NC1(c2ccnc3ccccc23)CC1` [Example C43], the inhibition at 1 µM was 71.9%.

As to `Cc1ccc(N2CCN(C(C)C)CC2)cc1C(=O)NC1(c2ccc(F)c3ccccc23)CC1` [Example C48], the inhibition at 1 µM was found to be 84.4%.

As to `Cc1ccc(N2CC(N(C)C)C2)cc1C(=O)NC1(c2cccc3cc(F)c(F)cc23)CC1` [Example C10], inhibition was half-maximal at 13 ± 2.76 nM (IC50) and the inhibition at 1 µM worked out at 98.2%.

For the compound `Cc1ccc(N2CC(N(C)C)C2)cc1C(=O)NC1(c2ccc(Cl)c3ccccc23)CC1` [Example C11], the IC50 is 83.1 ± 12.7 nM and the inhibition at 1 µM is 96.8%.

Turning to `Cc1ccc(N2CC(N(C)C)C2)cc1C(=O)NC1(c2csc3ccccc23)CC1` [Example C20], the half-maximal inhibitory concentration (IC50) amounted to 76.5 ± 9.48 nM and the inhibition at 1 µM is 91.9%.

For the compound `Cc1ccc(N2CC(C(=O)O)C2)cc1C(=O)NC1(c2cccc3ncccc23)CC1` [Example C37], the inhibition at 1 µM came to 12.6%.

On to `[2H]C1([2H])C(N(C)C)C([2H])([2H])N1c1ccc(C)c(C(=O)NC2(c3ccc(F)c4ncccc34)CC2)c1` [Example C90], for which the IC50 came to 69.8 nM and the inhibition at 1 µM turned out to be 85%.

`Cc1ccc(N2CC(N(C)C)C2)cc1C(=O)NC1(c2ccc(N(C)C)c3ccccc23)CC1` [Example C88]: half-maximal inhibition (IC50) required 175 nM and the inhibition at 1 µM was 96.2%.

For `Cc1ccc(N2CC3CCC(C2)N3)cc1C(=O)NC1(c2cccc(-c3cccs3)c2)CC1` [Example C4], the inhibition at 1 µM was found to be 73.4%.

For the compound `Cc1ccc(N2CCN(C(C)C)CC2)cc1C(=O)NC1(c2ccnc3ccccc23)CC1` [Example C42], the inhibition at 1 µM came to 85.2%.

On to `Cc1ccc(Br)cc1/C=N/C1(c2ccc(F)c3ncccc23)CC1` [Example C79], for which the inhibition at 1 µM was 16.5%.

For the compound `COC1(C)CN(c2ccc(C)c(C(=O)NC3(c4cccc5ncccc45)CC3)c2)C1` [Example C36], the inhibition at 1 µM was 3.5%.

Regarding `Cc1ccc(NC2CCNC2)cc1C(=O)NC1(c2ccc(F)c3ccccc23)CC1` (stereo not drawn) [Example C50], the inhibition at 1 µM is 27.8%.
